What is called IC50 is the concentration that gives 50% inhibition. Broadly, the inhibition is the relative decrease from the control value, in per cent. Low readings indicate a response near the control, high ones a response far below the control.

In brackets after ≈: the same amount, converted by molar mass.

Here are results for 6 compounds from ChEMBL document CHEMBL2331126, “Alkyl esters of gallic acid as anticancer agents: a review” (Eur J Med Chem, 2013).

The test system of assay [1] is L929. Briefly: Cytotoxicity against mouse L929 cells. It counts as functional, cell-based.
The nature of assay [2]: Cytotoxicity against mouse WEHI231 cells. It counts as functional, cell-based.
Assay [3] has as its system L1210. Briefly: Cytotoxicity against mouse L1210 cells. It counts as functional, cell-based.
For assay [4], the system named is B16-F10. Briefly: Cytotoxicity against mouse B16F10 cells. It counts as functional, cell-based.
The subject of assay [5] is CCRF-CEM. The assay is described as follows: Cytotoxicity against human CEM cells. It counts as cell-based.
Assay [6] is described as follows: Antimigratory activity against human U87 cells at 30 ug/ml after 8 hrs by wound closure assay. It counts as functional, U-87MG ATCC.
The test system of assay [7] is A549. Briefly: Cytotoxicity against human A549 cells. It counts as functional, cell-based.
Assay [8] relates to Calu-6. The assay is described as follows: Cytotoxicity against human Calu6 cells. It counts as functional, cell-based.
Assay [9] has as its target Disintegrin and metalloproteinase domain-containing protein 17 (Homo sapiens) (UniProt P78536). The assay is described as follows: Inhibition of ADAM17 alpha-secretase activity in human […] cells using amyloid beta precursor protein as substrate at 30 ug/ml after 24 hrs by fluorimetric analysis. It counts as cell-based.
The test system of assay [10] is KB. Briefly: Cytotoxicity against human KB cells. It counts as functional, cell-based.
Assay [11] deals with U-251. The assay is described as follows: Antimigratory activity against human U251 cells at 40 ug/ml after 8 hrs by wound closure assay. It counts as functional.
Assay [12] concerns HL-60. Briefly: Cytotoxicity against human HL60 cells. It counts as functional, cell-based.
Assay [13] concerns HeLa. The assay is described as follows: Cytotoxicity against human HeLa cells. It counts as functional, cell-based.
The test system of assay [14] is U-251. Briefly: Antimigratory activity against human U251 cells at 30 ug/ml after 8 hrs by wound closure assay. It counts as functional.
Assay [15] relates to K562. Briefly: Cytotoxicity against human imatinib-resistant K562 cells. It counts as functional, cell-based.
In assay [16] the test system is K562. Briefly: Cytotoxicity against human K562 cells. It counts as functional, cell-based.
Assay [17] is described as follows: Cytotoxicity against human HL60RG cells. It counts as functional, cell-based.
The target of assay [18] is Disintegrin and metalloproteinase domain-containing protein 17 (Homo sapiens) (UniProt P78536). The assay is described as follows: Inhibition of ADAM17 alpha-secretase activity in human […] cells using amyloid beta precursor protein as substrate at 40 ug/ml after 24 hrs by fluorimetric analysis. It counts as cell-based.
For assay [19] the target is unchanged. The assay is described as follows: Inhibition of ADAM17 alpha-secretase activity in human […] cells using amyloid beta precursor protein as substrate at 20 ug/ml after 24 hrs by fluorimetric analysis. It counts as cell-based.
Assay [20] in a line: Cytotoxicity against rat fibroblast cells. It counts as cell-based.
A short description of assay [21]: Cytotoxicity against rat endothelial cells. The note with it: Endothelial cell.
A short description of assay [22]: Cytotoxicity against rat dRLh-84 cells. It counts as functional, cell-based.
The subject of assay [23] is P388-D1 (Mus musculus). The assay is described as follows: Cytotoxicity against mouse P388D1 cells.
Assay [24] in a line: Cytotoxicity against human PLC/PRF/5 cells. It counts as functional, cell-based.
Assay [25] in a line: Antimigratory activity against human U87 cells at 40 ug/ml after 8 hrs by wound closure assay. It counts as functional, U-87MG ATCC.
Assay [26] concerns MDA-MB-231. The assay is described as follows: Cytotoxicity against human MDA-MB-231 cells. It counts as functional, cell-based.

Sequence of Disintegrin and metalloproteinase domain-containing protein 17 (Homo sapiens) (P78536 whole entry, the tested form may be a part): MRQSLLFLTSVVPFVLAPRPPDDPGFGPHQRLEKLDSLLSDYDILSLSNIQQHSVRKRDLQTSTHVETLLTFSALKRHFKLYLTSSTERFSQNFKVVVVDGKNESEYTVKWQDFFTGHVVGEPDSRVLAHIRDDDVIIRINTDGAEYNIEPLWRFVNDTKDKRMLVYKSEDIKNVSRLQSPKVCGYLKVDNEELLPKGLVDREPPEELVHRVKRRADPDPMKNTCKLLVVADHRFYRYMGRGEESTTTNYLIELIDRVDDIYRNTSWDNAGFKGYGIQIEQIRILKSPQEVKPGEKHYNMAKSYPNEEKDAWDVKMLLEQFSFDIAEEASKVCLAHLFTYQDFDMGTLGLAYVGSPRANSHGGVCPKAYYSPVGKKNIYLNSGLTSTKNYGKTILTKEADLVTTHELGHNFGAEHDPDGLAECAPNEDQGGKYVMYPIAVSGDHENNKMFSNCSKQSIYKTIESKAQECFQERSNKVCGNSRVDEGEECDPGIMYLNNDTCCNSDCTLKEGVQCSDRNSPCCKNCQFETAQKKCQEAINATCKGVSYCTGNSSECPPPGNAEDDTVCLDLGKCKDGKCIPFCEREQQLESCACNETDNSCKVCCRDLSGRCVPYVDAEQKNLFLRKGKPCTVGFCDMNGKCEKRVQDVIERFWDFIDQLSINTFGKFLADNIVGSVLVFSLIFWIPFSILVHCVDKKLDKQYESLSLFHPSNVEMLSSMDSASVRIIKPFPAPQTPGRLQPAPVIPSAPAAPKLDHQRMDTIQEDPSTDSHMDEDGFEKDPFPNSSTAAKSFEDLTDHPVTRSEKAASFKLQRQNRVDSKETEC

For `CCCCCCCCOC(=O)c1cc(O)c(O)c(O)c1` [OCTYL_GALLATE], the IC50 in assay [1] came out at 1 µM; in assay [2] it was 1.5 µM; in assay [3], 22 µM; in [4], 45 µM; in [5], 50 µM.
As to `O=C(O)c1cc(O)c(O)c(O)c1` [GALLIC ACID], the Activity in assay [6] is 29%; in [11], 31%; in assay [14], 51%; in assay [25] it was 30%. In addition, the IC50 in assay [7] was found to be 100 µM; in assay [1] it was 250 µM; in assay [8] it was 10 µM; in assay [10] it was 13.2 µg/mL (≈ 77.6 µM); in [2], 40 µM; in assay [12] it was 300 µM. The IC50 was 358 µM in assay [13]; 4.75 µM in assay [15]; 33 µM in assay [16]; 317 µM in assay [17]; above 20 µg/mL in assay [20]; above 20 µg/mL in assay [21]. The IC50 in assay [22] came out at 364 µM; in assay [23], 282 µM; in assay [24], 387 µM. For the same compound, the inhibition stood at 43.5% in assay [9], 38.9% in assay [18] and 47.9% in assay [19].
`CCCCCCCCCCCCCCOC(=O)c1cc(O)c(O)c(O)c1` [TETRADECYL GALLATE]: the values for the half-inhibitory concentration (IC50) in [3], in assay [4] and in assay [5] were 8.5 µM, 60 µM and above 50 µM, respectively.
As for `CCCCCCCCCCOC(=O)c1cc(O)c(O)c(O)c1` [DECYL GALLATE], the figures for the half-maximal inhibitory concentration (IC50) in assay [3], in assay [4] and in [5] were 12.2 µM, 82 µM and 9.8 µM, respectively.
Take `CCCOC(=O)c1cc(O)c(O)c(O)c1` [PROPYL GALLATE]: the 50% inhibitory concentration (IC50) in assay [1] is 40 µM; in [2], 12 µM; in assay [13], 800 µM.
Regarding `CCCCCCCCCCCCOC(=O)c1cc(O)c(O)c(O)c1` [DODECYL GALLATE], the concentration for half-maximal inhibition (IC50) in [1] came out at 1 µM; in [2], 1 µM; in assay [12] it was 33 µM; in assay [3] it was 10.9 µM; in assay [4], 48 µM; in assay [26] it was 1 µM. For the same compound, half-maximal inhibition in assay [5] (IC50) required 47.4 µM.
